Consider six compounds from patent US6291496A, “Treating cancers associated with overexpression of class I family of receptor tyrosine kinases” (priority 1999, dated 2001).

Assay [1] deals with human PPARγ binding domain. The following applies: scintillation proximity assay, radioligand [3H]BRL 49653; values reported in Henke et al, Collins et al, Cobb et al; cited from earlier work.
The test system of assay [2] is HER-2/neu positive breast cancer. The assay can be described thus: Example I: adjuvant therapy after mastectomy. The assay is classed as in vivo, human. Particulars: patient, oral 5 mg/kg twice per day for five years after mastectomy.
Assay [3] shares this test system. The assay is described as follows: Example II: adjuvant therapy with PPARγ ligand and HERCEPTIN
Type of assay: in vivo, human. The following applies: patient, oral 5 mg/kg twice daily for one year, with HERCEPTIN 250 mg IV loading then 10 weekly doses of 125 mg.

The subject of assay [4] is head and neck carcinoma where EGFR is overexpressed. The assay is described as follows: Example VII: head and neck carcinoma. Type of assay: in vivo, human. The following applies: after the 12 weeks of CETUXIMAB and cisplatin, oral 5 mg/kg twice daily for 12 weeks. The protocol:
Concurrently cisplatin is infused every four weeks at 60 mg/m^2.

The test system of assay [5] is HER-2/neu positive breast cancer metastasized to bone. The assay can be described thus: Example IV: breast cancer metastasized to bone. Type of assay: in vivo, human. The following applies: patient after failure of prior chemotherapy, oral 5 mg/kg twice daily plus HERCEPTIN
The procedure:
After 90 days, oral cyclophosphamide at a dose of 3 mg/kg/day and doxorubicin administered intravenously weekly at a dose of 20 mg/m^2, are added to the drug regimen.

Assay [6] has as its system HER-2/neu positive breast cancer metastasized to lung and liver. The assay is described as follows: Example III: breast cancer metastasized to lung and liver. Type of assay: in vivo, human. The following applies: patient, oral 5 mg/kg twice daily. The procedure:
After three months, the PPARγ ligand administration is continued in combination regimen with Taxol® at a dose of 175 mg/m^2 administered intravenously every three weeks.

In assay [7] the test system is non-small cell lung carcinoma where EGFR is overexpressed. The assay is described as follows: Example VI: non-small cell lung carcinoma metastasized to liver. Type of assay: in vivo, human. The following applies: patient, oral 5 mg/kg twice daily. The procedure: After one month, PPARγ ligand administration is continued in combination with infusion of cisplatin every four weeks at 60 mg/m^2 for 12 more weeks.

The subject of assay [8] is EGFR positive breast cancer. The assay is described as follows: Example IX: adjuvant therapy after mastectomy. Type of assay: in vivo, human. Particulars: patient, oral 5 mg/kg twice daily for five years after mastectomy.
The subject of assay [9] is HER-2/neu positive colon cancer. The assay is described as follows: Example V: after resection of colon cancer. Type of assay: in vivo, human. Particulars: patient, oral 5 mg/kg twice daily for five years after resection.
The subject of another assay is HER-2/neu promoter. The assay is described as follows: transient transfection assay, human HER-2/neu promoter construct ligated to luciferase, 184B5/HER cells. Type of assay: cell-based. Particulars: 0-25 μM, 24 hours, FIG. 1. The procedure: To determine whether PPARγ ligands inhibit HER-2/neu promoter activity, a transient transfection assay was performed. 184B5/HER cells were transfected with 1.8 μg of a human HER-21neu promoter construct ligated to luciferase (-1571/--24) and 0.2 μg pSVβgal (Promega Corp., Madison Wis.). The HER-2/neu promoter (-1571/--24) is described in Hudson, L. G. et al, J. Biol. Chem. 265, 4389-4393 (3/90), the whole of which is incorporated herein by reference. The promoter constructs are described in Hudson, L. G., et al, Cell 62, 1165-1175(1990). 184B5/HER cells were seeded at a density of5×10^4 cells well in 6-well dishes and grown to 50-60% confluence. For each well, 2 μg of […] DNA were introduced into cells using 8 μg of LIPOFECTAMINE (Life Technologies, Inc., Grand Island, N.Y.) as per the manufacturer's instructions. Following transfection, the cells were treated with ciglitazone (0, 5, 10, 15, 20 and 25 μM) or 15d-PGJ2 (0, 5, 10, 15, 20 and 25 μM) for 24 hours.
The activities of luciferase and β-galactosidase were measured in cellular extract as described in Mestre, J. R. et al, Cancer Res. 57, 1081-1085 (1997).

In assay [10] the test system is HER-2/neu in 184B5/HER cells. The assay can be described thus: immunoblot for HER-2/neu in 184B5/HER cells. Type of assay: cell-based, human. Particulars: 25 μM ciglitazone or 20 μM 15-d-PGJ2, 24 hours. From the text: The 184B5/HER cell line was obtained from a collaborator and was derived by stably transfecting 184B5 cells with a mutationally activated HER-2/neu oncogene; these cells form rapidly growing tumors when injected into athymic nude mice. The 184B5/HER cell line is described in Pierce, J. H., et al., Oncogene 6, 1189-1194 (1991). The BT-474 cell line is a human breast cancer adenocarcinoma cell line which overexpresses HER-2/neu, and was obtained from the American Type Culture Collection (Manassas, Va.) and bears accession number ATCC HBT-20.
184B5/HER cells were maintained in MEM-KBM mixed in a ratio of 1:1 (basal medium) containing epidermal growth factor (10 ng/ml), hydrocortisone (0.5 μg/ml), transferrin (10 μg/ml), gentamicin (5 μg/ml) and insulin (10 μg/ml) (growth medium). […] cells were grown to 60% confluence, trypsinized with 0.05% trypsin-2 mM ethylenediaminotetraacetic acid, and plated for experimental use. […]
184B5/HER cells were treated with vehicle (0.01% dimethylsulfoxide), 25 μM ciglitazone (Biomol, Plymouth Meeting, Pennsylvania) or 20 μM 15-d-PGJ2 (Biomol, Plymouth Meeting, Pennsylvania) for 24 hours. […] The protein concentration of the supernatant was measured by the method of Lowry, O. H., et al, J. Biol. Chem. 193, 265-275 (1951). […]

In the next assay the test system is EGFR promoter. The assay can be described thus: transient transfection assay, human EGFR promoter construct ligated to luciferase, 184B5 cells. Type of assay: cell-based. The following applies: 0-25 μM, 24 hours, FIG. 2. The procedure:
To determine whether PPARγ ligands inhibit EGFR promoter activity, a transient transfection assay was performed, 184B5 cells were transfected with 1.8 μg of a human EGFR promoter construct ligated luciferase (-1100/-19) and 0.2 μg pSVβgal (Promega Corp., Madison, Wis.). The EGFR promoter is described in Hudson, L. G., et al, Cell 62, 1165-1175 (1990), the whole of which is incorporated herein by reference. 184B5 cells were seeded at a density of 5×10^4 cells/well in 6-well dishes and grown to 50-60% confluence. For each well 2 μg of […] DNA were introduced into cells using 8 μg of LIPOFECTAMINE (Life Technologies, Inc., Grand Island, N.Y.) as per the manufacturers instructions. Following transfection, the cells were treated with ciglitazone (0, 5, 10, 15, 20 and 25 μM) or 15-d-PGJ2 (0, 5, 10, 15, 20, and 25 μM) for 24 hours. The activities of luciferase and β-galactosidase were measured in cellular extract as described in Mestre, J. R, et al, Cancer Res. 57, 1081-1085 (1997). The results are shown in FIG. 2 where luciferase activity represents data that have been normalized to β-galactosidase activity (columns, means; bars, S. D., n=6; * means p<0.01 compared to control).

For assay [11], the system named is EGFR in 184B5 mammary epithelial cells. The assay is described as follows: immunoblot for EGFR in 184B5 cells. The assay is classed as cell-based, human. The following applies: ciglitazone 5-30 μM or 15-d-PGJ2 5, 10 μM, 24 hours. The procedure: The cells used were 184B5 cells. The 184B5 cell line was obtained from a collaborator and is an immortalized but non-tumorigenic human breast epithelial cell line that was established from a reduction mammaplasty and is described in Stampler, M. R, et al, Proc. Natl. Acad. Sci. USA 82, 2394-2398 (1985).
184B5 cells were maintained in MEM-KBM mixed in a ratio of 1:1 (basal medium) containing epidermal growth factor (10 ng/ml), hydrocortisone (0.5 μg/ml), transferrin (10 μg/ml), gentamicin (5 μg/ml), and insulin (10 μg/ml) (growth medium). 184B5 cells were grown to 60% confluence, trypsinized with 0.05% trypsin-2 mM ethylenediaminotetraacetic acid and plated for experimental use.
184B5 cells were treated with vehicle (0.01% dimethyl sulfoxide), ciglitazone (5, 10, 20, 30 μM) or 15-d-PGJ2 (5, 10 μM) for 24 hours. Cell lysates were prepared in RIPA buffer. Lysates were sonicated for 20 seconds on ice and centrifuged at 10,000×g for 10 minutes to sediment the particulate material. The protein concentration of the supernatant was measured by the method of Lowry,. O. H., et al, J. Biol. Chem. 193, 265-275 (1951). Cellular lysate protein (100 μg/lane) was loaded onto a 10% SDS-polyacrylamide gel, electrophoresed and subsequently transferred onto a nitrocellulose membrane(Schleicher & Schuell Keene, N. H.). […]

The subject of another assay is HER-2/neu mRNA. The assay is described as follows: Northern blotting for HER-2/neu mRNA in 184B5/HER cells. The assay is classed as cell-based, human. Particulars: 25 μM ciglitazone or 20 μM 15-d-PGJ2. The procedure: Northern blotting was performed to evaluate whether PPARγ ligands decrease levels of HER-2/neu mRNA. 184B5/HER cells were treated with vehicle (0.01% dimethyl sulfoxide), 25 μM ciglitazone or 20 μM 15-d-PGJ2. Total cellular RNA was isolated from cell monolayers using an RNA isolation kit from Qiagen Inc. 10 μg of RNA was added to each lane. The 10 μg of total cellular RNA per lane were electrophoresed in a formaldehyde-containing 1.2% agarose gel and transferred to nylon-supported membranes. The blot was hybridized with probes that recognized HER-2/neu mRNA (Santa Cruz Biotechnology, Inc., Santa Cruz, Calif.) and 18S rRNA cDNA (Ambion, Inc., Austin, Tex.).

The subject of assay [12] is Stage IV EGFR positive breast cancer tumors. The assay is described as follows: Example VIII: breast cancer with Stage IV EGFR positive tumors. The assay is classed as in vivo, human. Particulars: oral 5 mg/kg twice daily in combination with CETUXIMAB and Taxol.

Take `Cc1oc(-c2ccccc2)nc1CCOc1ccc(C[C@H](Nc2ccccc2C(=O)OC(C)C)C(=O)O)cc1` [#66]: in assay [1], the “pKi in binding assay using the human PPARγ binding domain” value (from here on “pKi in binding assay”) is on record as 9.01±0.00.

In the case of `CCOC(=O)c1ccccc1N[C@@H](Cc1ccc(OCCc2nc(-c3ccccc3)oc2C)cc1)C(=O)O` [#64], in assay [1], the “pKi in binding assay” value is given as 8.52±0.03.

Take `CCCOC(=O)c1ccccc1N[C@@H](Cc1ccc(OCCc2nc(-c3ccccc3)oc2C)cc1)C(=O)O` [#65]: in assay [1], the “pKi in binding assay” value was 8.62±0.03.

Take `CN(CCOc1ccc(C[C@H](Nc2ccccc2C(=O)c2ccccc2)C(=O)O)cc1)c1nc2ccccc2o1` [structure (II), 3-{4-[2-benzoxazol-2-ylmethylamino)ethoxy](phenyl}-(2S)-((2-benzoylphenyl)amino)propionic acid]: the “recurrence of breast cancer” value in assay [2] was “recurrence of breast cancer does not occur”; in [3], “Recurrence of breast cancer does not occur”; in assay [8] it was “Recurrence of breast cancer dose not occur”. Besides, the tumor burden entry is “further reduced tumor burden” in assay [4], “reduced tumor burden” in assay [5], “reduced tumor burden” in assay [6] and “reduced tumor burden” in assay [7]. In addition, the “pKi in binding assay” value in assay [1] is given as 8.83±0.05. The “recurrence of colon cancer” value in assay [9] is on record as “Recurrence of colon cancer does not occur”.

As for `CCCCC/C=C/C=C1/C(=O)C=C[C@@H]1C/C=C\CCCC(=O)O` [15-d-PGJ2, 15-deoxy-Δ12, 14-prostaglandin J2], the “HER-2/neu promoter activity (luciferase normalized to β-galactosidase)” value in the assay with HER-2/neu promoter is listed as “inhibited HER-2 neu promoter activity in a dose-dependent fashion”. Moreover, the “amount of HER-2/neu (immunoblot)” value in assay [10] is on record as “decreased the amount of HER-2/neu”. Further, the “EGFR promoter activity (luciferase normalized to β-galactosidase)” value with EGFR promoter was “inhibited EGFR promoter activity in a dose-dependent fashion”. The “amounts of EGFR (immunoblot)” value in assay [11] is recorded as “decreased amounts of EGFR”. In the assay on HER-2/neu mRNA, the “amounts of HER-2/neu mRNA (Northern blot)” value is recorded as “decrease amounts of HER-2/neu mRNA”.

Take `CN(CCOc1ccc(CC2SC(=O)NC2=O)cc1)c1ccccn1` (stereo not drawn) [rosiglitazone]: the results for the “recurrence of breast cancer” value in [2], in [3] and in assay [8] were “Recurrence of breast cancer does not occur”, “Recurrence of breast cancer does not occur” and “Recurrence of breast cancer dose not occur”, respectively. The tumor burden result in assay [4] is listed as “further reduced tumor burden”; in assay [5] it was “reduced tumor burden”; in assay [6], “reduced tumor burden”; in [7], “reduced tumor burden”; in assay [12], “reduced tumor burden”. For the same compound, the “pKi in binding assay” value in assay [1] was 7.33±0.02. For the same compound, in assay [9], the “recurrence of colon cancer” value is “Recurrence of colon cancer does not occur”.
